The values below come from patent publication US11452309B2, “Formula of preparations for oral and/or enteral feeding of children” (priority 2017, dated 2022).

In brackets after ≈: the same amount, converted by molar mass. Structures can show the parent of a compound that is named as a salt. Where two headings read alike, the source gives them in different places.

For orientation: solubility means the concentration that dissolves in the medium under given conditions.

The conditions of data set [1]: cited from earlier work.
The nature of data set [2]: Solubility of kynurenic acid and its sodium salt. In kind it is physicochemical. As to conditions: water, converted from 100 mM, read-out: solubility in water, corresponding value.

With `O=C(O)c1cc(=O)c2ccccc2[nH]1` [kynurenic acid], in data set [1] (alkaline conditions, 1.0 M NaOH), the “solubility in 1.0 M NaOH” value is 50 mg/mL (≈ 264 mM). Further, the solubility in water in data set [1] is 0.95 mg/mL.

Take `O=C(O)c1cc(=O)c2ccccc2[nH]1` [sodium salt]: the solubility in data set [2] came to 21 mg/mL. For the same compound, in data set [1] (sodium salt), the solubility in water is 100 mM.
